Data as given in the Kinase Knowledgebase extract (Sharma et al. 2016).

biological target: EGFR (UniProt P00533)
Sequence (P00533 whole entry, looked up): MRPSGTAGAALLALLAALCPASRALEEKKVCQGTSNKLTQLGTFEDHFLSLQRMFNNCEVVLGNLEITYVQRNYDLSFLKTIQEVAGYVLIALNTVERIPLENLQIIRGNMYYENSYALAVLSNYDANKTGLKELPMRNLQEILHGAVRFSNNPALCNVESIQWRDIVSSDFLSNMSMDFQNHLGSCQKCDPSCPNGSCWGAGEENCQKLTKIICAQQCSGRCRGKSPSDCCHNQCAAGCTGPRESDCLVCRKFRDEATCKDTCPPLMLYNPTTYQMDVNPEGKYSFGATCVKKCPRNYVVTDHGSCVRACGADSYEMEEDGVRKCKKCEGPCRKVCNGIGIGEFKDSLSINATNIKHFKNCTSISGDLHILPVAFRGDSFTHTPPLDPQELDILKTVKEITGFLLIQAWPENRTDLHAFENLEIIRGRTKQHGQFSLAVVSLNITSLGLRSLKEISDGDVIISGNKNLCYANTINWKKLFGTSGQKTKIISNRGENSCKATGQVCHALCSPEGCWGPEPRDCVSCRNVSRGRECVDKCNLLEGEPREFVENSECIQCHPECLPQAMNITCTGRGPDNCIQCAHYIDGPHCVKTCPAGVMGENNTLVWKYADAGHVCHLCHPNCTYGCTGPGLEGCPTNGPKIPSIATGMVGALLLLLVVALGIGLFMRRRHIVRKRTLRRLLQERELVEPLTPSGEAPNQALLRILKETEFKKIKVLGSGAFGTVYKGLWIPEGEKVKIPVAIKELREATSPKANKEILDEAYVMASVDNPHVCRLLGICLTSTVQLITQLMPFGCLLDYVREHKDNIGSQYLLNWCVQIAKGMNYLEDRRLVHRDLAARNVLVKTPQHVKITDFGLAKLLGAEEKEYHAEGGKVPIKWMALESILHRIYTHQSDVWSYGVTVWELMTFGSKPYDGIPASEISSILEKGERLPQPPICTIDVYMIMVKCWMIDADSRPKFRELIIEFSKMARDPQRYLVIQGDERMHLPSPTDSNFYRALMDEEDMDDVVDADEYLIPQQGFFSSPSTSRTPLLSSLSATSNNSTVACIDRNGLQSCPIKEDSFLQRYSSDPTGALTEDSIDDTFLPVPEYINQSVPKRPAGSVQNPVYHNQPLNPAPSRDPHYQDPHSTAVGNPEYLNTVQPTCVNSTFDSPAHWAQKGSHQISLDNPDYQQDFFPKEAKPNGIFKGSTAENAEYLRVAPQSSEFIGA

IC50, < 100 nM:
O=S(=O)(CCOCc1ccc(-c2ccc3ncnc(Nc4ccc(OCc5cccc(F)c5)c(Cl)c4)c3c2)o1)c1ccccc1
Cn1ccnc1S(=O)(=O)CCNCc1ccc(-c2ccc3ncnc(Nc4ccc(OCc5cccc(F)c5)c(Cl)c4)c3c2)o1
CCCN(CCS(C)(=O)=O)Cc1ccc(-c2ccc3ncnc(Nc4ccc(OCc5cccc(F)c5)c(Cl)c4)c3c2)o1
O=S(=O)(CCNCc1ccc(-c2ccc3ncnc(Nc4ccc(OCc5cccc(F)c5)c(Cl)c4)c3c2)o1)c1ccccc1
CCN(CCS(C)(=O)=O)Cc1ccc(-c2ccc3ncnc(Nc4ccc(OCc5cccc(F)c5)c(Cl)c4)c3c2)o1
CS(=O)(=O)CCNCCCc1ccc(-c2ccc3ncnc(Nc4ccc(OCc5ccccc5)c(Cl)c4)c3c2)o1
O=S(=O)(CCNCc1ccc(-c2ccc3ncnc(Nc4ccc(OCc5cccc(F)c5)c(Cl)c4)c3c2)o1)c1ccccn1
CS(=O)(=O)CCN(CC#N)Cc1ccc(-c2ccc3ncnc(Nc4ccc(OCc5cccc(F)c5)c(Cl)c4)c3c2)o1
C=CS(=O)(=O)CCOCc1ccc(-c2ccc3ncnc(Nc4ccc(OCc5cccc(F)c5)c(Cl)c4)c3c2)o1
CCCS(=O)(=O)CCNCc1ccc(-c2ccc3ncnc(Nc4ccc(OCc5cccc(F)c5)c(Cl)c4)c3c2)o1
CCCS(=O)(=O)CCNCc1ccc(-c2cc3c(Nc4ccc(OCc5cccc(F)c5)cc4)ncnc3cn2)o1
CS(=O)(=O)CCOCc1ccc(-c2ccc3ncnc(Nc4ccc(OCc5cccc(F)c5)c(Cl)c4)c3c2)o1
